Experimental data from ChEMBL document CHEMBL5715945 (Cancer Biol Ther, 2010).
The source made the active and inactive calls. The calls are words filed in the database; no cut-off is given here.

What was measured:
4T1 [1] = experiment: Effect on p130Cas phosphorylation at Tyr249 residue in mouse 4T1 cells harbouring mCherry red fluorescent protein at 0.1 to 1 uM incubated for 1 hr by immunoblotting analysis; assay type: functional, cell-based; details: dose 0.1-1 µM
[2] = target: Rho-associated protein kinase 1 (Homo sapiens) (UniProt Q13464); experiment: Inhibition of ROCK1 (unknown origin) at 1 uM relative to control; values are per cent of control
4T1 [3] = experiment: Induction of cell cycle arrest in mouse 4T1 adherent cells assessed as accumulation at G0/G1 phase at 1 uM measured after 72 hrs by PI staining based flow cytometry analysis (reference value: 76.8%); assay type: functional
[4] = target: Dual specificity mitogen-activated protein kinase kinase 1 (Homo sapiens) (UniProt Q02750); experiment: Inhibition of MEK1 (unknown origin) at 1 uM relative to control; values are per cent of control
4T1 [5] = experiment: Induction of apoptosis in mouse 4T1 adherent cells assessed as increase in cleaved caspase 3 expression at 0.4 uM incubated for 24 hrs by immunoblotting analysis; assay type: functional, cell-based
[6] = target: RAF proto-oncogene serine/threonine-protein kinase (Homo sapiens) (UniProt P04049); experiment: Inhibition of c-RAF (unknown origin) at 1 uM relative to control; values are per cent of control
Sequence of RAF proto-oncogene serine/threonine-protein kinase (Homo sapiens) (P04049 whole entry): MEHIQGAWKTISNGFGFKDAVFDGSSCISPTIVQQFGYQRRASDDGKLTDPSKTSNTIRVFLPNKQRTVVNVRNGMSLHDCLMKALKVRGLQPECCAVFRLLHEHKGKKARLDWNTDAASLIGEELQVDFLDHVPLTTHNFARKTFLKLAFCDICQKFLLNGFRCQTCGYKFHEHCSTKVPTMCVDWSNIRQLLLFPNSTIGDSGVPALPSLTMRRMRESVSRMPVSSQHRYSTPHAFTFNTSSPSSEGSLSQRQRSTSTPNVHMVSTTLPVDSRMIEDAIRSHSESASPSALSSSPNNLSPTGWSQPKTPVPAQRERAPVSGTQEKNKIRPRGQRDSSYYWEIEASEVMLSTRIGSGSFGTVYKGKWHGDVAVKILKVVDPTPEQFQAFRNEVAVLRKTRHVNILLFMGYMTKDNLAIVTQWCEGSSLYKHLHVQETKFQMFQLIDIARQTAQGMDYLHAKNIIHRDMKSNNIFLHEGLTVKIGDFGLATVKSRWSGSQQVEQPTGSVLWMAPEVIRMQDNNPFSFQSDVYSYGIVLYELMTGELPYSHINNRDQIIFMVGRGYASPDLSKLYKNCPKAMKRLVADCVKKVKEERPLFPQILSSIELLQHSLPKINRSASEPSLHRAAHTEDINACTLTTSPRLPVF

[7] = target: Aurora kinase A (Homo sapiens) (UniProt O14965); experiment: Inhibition of Aurora-A (unknown origin) at 0.1 uM relative to control; values are per cent of control
[8] = target: Insulin receptor (Homo sapiens) (UniProt P06213); experiment: Inhibition of IR (unknown origin) at 0.1 uM relative to control; values are per cent of control
[9] = target: Proto-oncogene tyrosine-protein kinase receptor Ret (Homo sapiens) (UniProt P07949); experiment: Inhibition of Ret (unknown origin) at 0.1 uM relative to control; values are per cent of control
4T1 [10] = experiment: Induction of apoptosis in mouse 4T1 adherent cells upto 0.1 uM incubated for 24 hrs by annexin V staining based flow cytometry analysis; assay type: functional, cell-based
[11] = target: Focal adhesion kinase 1 (Mus musculus) (UniProt P34152); experiment: Inhibition of FAK phosphorylation at Tyr397 residue in mouse ID8 cells harbouring mCherry red fluorescent protein at 0.1 to 1 uM incubated for 1 hr by immunoblotting analysis; assay type: cell-based; details: dose 0.1-1 µM
Sequence of Focal adhesion kinase 1 (Mus musculus) (P34152 whole entry): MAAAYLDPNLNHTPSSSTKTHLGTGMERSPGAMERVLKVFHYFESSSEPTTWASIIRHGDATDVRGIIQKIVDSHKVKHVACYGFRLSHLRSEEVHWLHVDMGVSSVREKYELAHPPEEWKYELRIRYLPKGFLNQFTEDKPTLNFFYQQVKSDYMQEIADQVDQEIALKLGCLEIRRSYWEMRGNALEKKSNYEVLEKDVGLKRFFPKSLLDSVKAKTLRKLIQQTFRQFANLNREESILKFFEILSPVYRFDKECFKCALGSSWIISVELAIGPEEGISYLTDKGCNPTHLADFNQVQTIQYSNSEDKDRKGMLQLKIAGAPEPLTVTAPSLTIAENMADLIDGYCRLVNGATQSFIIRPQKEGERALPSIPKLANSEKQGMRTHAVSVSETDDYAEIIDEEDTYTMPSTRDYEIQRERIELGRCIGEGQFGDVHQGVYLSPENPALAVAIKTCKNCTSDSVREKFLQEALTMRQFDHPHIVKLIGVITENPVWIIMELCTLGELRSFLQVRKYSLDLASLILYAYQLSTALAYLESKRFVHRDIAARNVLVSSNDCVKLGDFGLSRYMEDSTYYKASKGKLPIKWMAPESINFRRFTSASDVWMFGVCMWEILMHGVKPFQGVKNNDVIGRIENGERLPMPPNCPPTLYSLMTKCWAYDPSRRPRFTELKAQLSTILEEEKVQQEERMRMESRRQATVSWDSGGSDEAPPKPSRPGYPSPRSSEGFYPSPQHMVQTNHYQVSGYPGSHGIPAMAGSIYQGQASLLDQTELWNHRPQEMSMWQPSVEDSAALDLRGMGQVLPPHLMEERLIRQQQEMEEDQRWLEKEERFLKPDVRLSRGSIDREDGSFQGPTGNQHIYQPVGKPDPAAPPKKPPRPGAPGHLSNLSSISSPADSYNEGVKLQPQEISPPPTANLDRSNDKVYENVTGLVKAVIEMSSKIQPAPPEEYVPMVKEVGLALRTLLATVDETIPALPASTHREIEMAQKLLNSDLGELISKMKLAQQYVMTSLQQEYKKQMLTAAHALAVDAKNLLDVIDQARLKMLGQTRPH

4T1 [12] = experiment: Induction of apoptosis in mouse 4T1 suspended cells at 0.1 uM incubated for 72 hrs by PI staining based flow cytometry analysis; assay type: functional, cell-based
[13] = target: Casein kinase I isoform gamma-1 (Homo sapiens) (UniProt Q9HCP0); experiment: Inhibition of CK1g1 (unknown origin) at 0.1 uM relative to control; values are per cent of control
ID8 [14] = experiment: Antitumor activity against mouse ID8 suspended cells assessed as reduction in cell viability at 0.1 to 1 uM measured after 15 days by trypan blue staining based analysis; assay type: functional; details: dose 0.1-1 µM, time 15.0 day
[15] = target: Proto-oncogene tyrosine-protein kinase Src (Homo sapiens) (UniProt P12931); experiment: Inhibition of c-SRC (unknown origin) at 1 uM relative to control; values are per cent of control
Homo sapiens = organism: Homo sapiens; experiment: Inhibition of CDK2/cyclin A (unknown origin) at 0.1 uM relative to control; values are per cent of control
[16] = target: Tyrosine-protein kinase JAK2 (Homo sapiens) (UniProt O60674); experiment: Inhibition of JAK2 (unknown origin) at 0.1 uM relative to control; values are per cent of control
Sequence of Tyrosine-protein kinase JAK2 (Homo sapiens) (O60674 whole entry): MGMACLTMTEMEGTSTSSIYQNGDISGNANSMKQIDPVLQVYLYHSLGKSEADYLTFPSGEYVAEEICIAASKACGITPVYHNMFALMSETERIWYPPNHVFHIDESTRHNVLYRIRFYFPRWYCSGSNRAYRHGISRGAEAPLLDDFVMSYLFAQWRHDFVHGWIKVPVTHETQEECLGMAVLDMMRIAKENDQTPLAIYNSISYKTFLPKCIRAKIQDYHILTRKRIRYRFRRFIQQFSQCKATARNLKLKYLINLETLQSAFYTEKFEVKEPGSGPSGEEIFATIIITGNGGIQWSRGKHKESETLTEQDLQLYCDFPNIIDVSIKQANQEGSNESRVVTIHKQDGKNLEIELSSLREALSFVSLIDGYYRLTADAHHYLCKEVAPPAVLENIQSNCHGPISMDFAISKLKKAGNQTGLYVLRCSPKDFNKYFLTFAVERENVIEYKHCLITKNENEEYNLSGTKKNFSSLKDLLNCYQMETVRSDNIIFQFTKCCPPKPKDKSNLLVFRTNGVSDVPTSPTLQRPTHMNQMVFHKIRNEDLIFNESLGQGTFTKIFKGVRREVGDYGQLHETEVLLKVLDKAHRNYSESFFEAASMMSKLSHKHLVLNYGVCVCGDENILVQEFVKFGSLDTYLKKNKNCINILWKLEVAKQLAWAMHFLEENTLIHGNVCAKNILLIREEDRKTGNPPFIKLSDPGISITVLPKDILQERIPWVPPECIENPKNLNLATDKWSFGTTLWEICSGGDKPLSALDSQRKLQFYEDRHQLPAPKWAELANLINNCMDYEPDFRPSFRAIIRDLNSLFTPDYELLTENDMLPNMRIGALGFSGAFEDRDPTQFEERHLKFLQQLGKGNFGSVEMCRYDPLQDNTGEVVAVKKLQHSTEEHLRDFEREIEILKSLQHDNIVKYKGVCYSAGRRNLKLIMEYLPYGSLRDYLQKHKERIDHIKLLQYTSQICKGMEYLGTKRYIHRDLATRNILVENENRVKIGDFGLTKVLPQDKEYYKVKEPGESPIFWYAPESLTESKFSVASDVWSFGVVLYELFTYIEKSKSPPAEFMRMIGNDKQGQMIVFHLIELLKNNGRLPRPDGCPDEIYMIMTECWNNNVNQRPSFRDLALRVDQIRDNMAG

[17] = target: Mast/stem cell growth factor receptor Kit (Homo sapiens) (UniProt P10721); experiment: Inhibition of c-kit (unknown origin) at 1 uM relative to control; values are per cent of control
[18] = target: Angiopoietin-1 receptor (Homo sapiens) (UniProt Q02763); experiment: Inhibition of Tie2 (unknown origin) at 0.1 uM relative to control; values are per cent of control
Sequence of Angiopoietin-1 receptor (Homo sapiens) (Q02763 whole entry): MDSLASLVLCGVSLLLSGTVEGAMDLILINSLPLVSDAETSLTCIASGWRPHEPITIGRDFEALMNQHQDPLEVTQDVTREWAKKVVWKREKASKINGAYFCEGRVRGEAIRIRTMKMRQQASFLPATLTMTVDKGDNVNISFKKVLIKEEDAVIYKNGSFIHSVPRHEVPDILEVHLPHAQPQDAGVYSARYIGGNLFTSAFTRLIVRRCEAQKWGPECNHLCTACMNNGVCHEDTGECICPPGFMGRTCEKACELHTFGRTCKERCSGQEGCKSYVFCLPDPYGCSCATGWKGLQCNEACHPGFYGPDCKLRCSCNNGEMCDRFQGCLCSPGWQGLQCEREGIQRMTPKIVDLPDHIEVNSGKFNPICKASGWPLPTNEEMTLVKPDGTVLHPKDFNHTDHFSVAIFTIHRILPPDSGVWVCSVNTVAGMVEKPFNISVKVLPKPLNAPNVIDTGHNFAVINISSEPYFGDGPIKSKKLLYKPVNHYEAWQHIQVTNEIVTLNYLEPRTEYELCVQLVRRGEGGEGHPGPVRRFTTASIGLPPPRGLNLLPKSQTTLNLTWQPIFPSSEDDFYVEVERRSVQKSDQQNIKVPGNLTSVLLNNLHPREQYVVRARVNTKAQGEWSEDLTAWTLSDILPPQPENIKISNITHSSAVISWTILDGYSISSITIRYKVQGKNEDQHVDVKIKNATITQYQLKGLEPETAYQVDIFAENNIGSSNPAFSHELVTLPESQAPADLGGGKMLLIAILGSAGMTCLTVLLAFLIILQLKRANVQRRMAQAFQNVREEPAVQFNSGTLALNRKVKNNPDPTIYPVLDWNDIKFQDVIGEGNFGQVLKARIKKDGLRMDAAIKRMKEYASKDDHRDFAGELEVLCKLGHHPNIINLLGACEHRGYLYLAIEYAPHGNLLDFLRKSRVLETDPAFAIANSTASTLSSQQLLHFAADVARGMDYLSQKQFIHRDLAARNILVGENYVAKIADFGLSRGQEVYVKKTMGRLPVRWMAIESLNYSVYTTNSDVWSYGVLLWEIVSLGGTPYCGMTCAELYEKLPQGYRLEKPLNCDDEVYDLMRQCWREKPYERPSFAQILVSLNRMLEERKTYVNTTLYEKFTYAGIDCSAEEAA

[19] = target: Serine/threonine-protein kinase Chk1 (Homo sapiens) (UniProt O14757); experiment: Inhibition of CHK1 (unknown origin) at 0.1 uM relative to control; values are per cent of control
[20] = target: Tyrosine-protein kinase JAK2 (Homo sapiens) (UniProt O60674); experiment: Inhibition of JAK2 (unknown origin) at 1 uM relative to control; values are per cent of control
[21] = target: Fibroblast growth factor receptor 1 (Homo sapiens) (UniProt P11362); experiment: Inhibition of FGFR1 (unknown origin) at 1 uM relative to control; values are per cent of control
Sequence of Fibroblast growth factor receptor 1 (Homo sapiens) (P11362 22-822 limits assumed): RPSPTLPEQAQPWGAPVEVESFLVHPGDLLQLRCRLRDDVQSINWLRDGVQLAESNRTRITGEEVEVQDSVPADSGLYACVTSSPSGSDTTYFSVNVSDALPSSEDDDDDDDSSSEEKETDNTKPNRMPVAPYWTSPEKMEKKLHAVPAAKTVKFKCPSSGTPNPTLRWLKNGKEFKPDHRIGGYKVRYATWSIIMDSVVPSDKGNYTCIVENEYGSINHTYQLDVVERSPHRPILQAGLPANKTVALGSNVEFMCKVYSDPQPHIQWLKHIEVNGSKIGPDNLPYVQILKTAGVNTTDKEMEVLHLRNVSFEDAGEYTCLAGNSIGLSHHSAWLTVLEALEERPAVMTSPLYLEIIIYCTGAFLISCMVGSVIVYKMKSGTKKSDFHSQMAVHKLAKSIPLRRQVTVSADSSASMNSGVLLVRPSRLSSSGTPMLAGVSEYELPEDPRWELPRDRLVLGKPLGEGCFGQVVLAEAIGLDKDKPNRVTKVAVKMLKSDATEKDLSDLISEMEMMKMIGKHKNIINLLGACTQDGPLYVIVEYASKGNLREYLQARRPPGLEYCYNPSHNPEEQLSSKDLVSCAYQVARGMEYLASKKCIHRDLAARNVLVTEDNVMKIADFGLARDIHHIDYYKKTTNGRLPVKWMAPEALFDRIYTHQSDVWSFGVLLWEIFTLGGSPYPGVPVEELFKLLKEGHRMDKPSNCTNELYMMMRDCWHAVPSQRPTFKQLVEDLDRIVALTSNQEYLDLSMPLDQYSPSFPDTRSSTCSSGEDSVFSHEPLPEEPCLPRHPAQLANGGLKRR

[22] = target: Focal adhesion kinase 1 (Mus musculus) (UniProt P34152); experiment: Inhibition of FAK phosphorylation at Y397 residue in mouse 4T1 suspended cells at 0.1 uM incubated for 24 hrs by immunoblotting analysis; assay type: cell-based
4T1 [23] = experiment: Induction of cell cycle arrest in mouse 4T1 adherent cells assessed as accumulation at G2/M phase at 1 uM measured after 72 hrs by PI staining based flow cytometry analysis (reference value: 5.6%); assay type: functional
4T1 [24] = experiment: Antiproliferative activity against mouse 4T1 cells cultured as 3D spheroids assessed as maximal effect at 0.2 uM measured after 72 hrs by phase contrast microscopic analysis; assay type: functional, cell-based
4T1 [25] = experiment: Antiproliferative activity against mouse 4T1 cells cultured as 3D spheroids assessed as fold reduction in average spheroid size at 0.1 uM measured after 72 hrs by phase contrast microscopic analysis; assay type: functional
[26] = target: RAF proto-oncogene serine/threonine-protein kinase (Homo sapiens) (UniProt P04049); experiment: Inhibition of c-RAF (unknown origin) at 0.1 uM relative to control; values are per cent of control
4T1 [27] = experiment: Inhibition of colony formation in mouse 4T1 cells assessed as reduction in cell number by measuring minimum inhibitory effect at 0.2 uM measured after 10 days by phase contrast microscopy analysis; assay type: functional, cell-based; details: time 10.0 day
4T1 [28] = experiment: Induction of cell cycle arrest in mouse 4T1 adherent cells assessed as accumulation at G2/M phase at 1 uM measured after 72 hrs by PI staining based flow cytometry analysis (reference value: 7.9%); assay type: functional
4T1 [29] = experiment: Inhibition of cell migration in mouse 4T1 cells assessed as wound closure at 1 uM incubated for 22 hrs by wound healing assay (reference value: 89%); assay type: functional; design: scale not given: the % may be the effect or the level left
[30] = target: Tyrosine-protein kinase Fyn (Homo sapiens) (UniProt P06241); experiment: Inhibition of Fyn (unknown origin) at 0.1 uM relative to control; values are per cent of control
4T1 [31] = experiment: Inhibition of cell migration in mouse 4T1 cells at 1 uM incubated for 22 hrs by wound healing assay; assay type: functional, cell-based
ID8 [32] = experiment: Antitumor activity against mouse ID8 suspended cells assessed as reduction in cell viability measured after 72 hrs by trypan blue staining based analysis; assay type: functional; details: dose 0.1 µM

residual activity [2]: 90% | residual activity [4]: 79% | residual activity [6]: 150% | residual activity [7]: 69% | residual activity [8]: 84% | residual activity [9]: 86% | inhibition [11]: Active | residual activity [13]: 111% | residual activity [15]: 72% | residual activity (Homo sapiens): 91% | residual activity [16]: 116% | residual activity [17]: 122% | residual activity [18]: 97% | residual activity [19]: 109% | residual activity [20]: 96% | residual activity [21]: 97% | inhibition [22]: Active | residual activity [26]: 142% | residual activity [30]: 99%
SMILES: CNC(=O)c1ccccc1Nc1cc(Nc2ccc(N3CCOCC3)cc2OC)ncc1C(F)(F)F [VS-4718]
Activity (4T1 [1]): inactive | Activity (4T1 [3]): 65.7% | Activity (4T1 [5]): inactive | Activity (4T1 [10]): inactive | Activity (4T1 [12]): Active | Activity (ID8 [14]): Active | Activity (4T1 [23]): 5.6% | Activity (4T1 [24]): Active | fold change (FC) (4T1 [25]): ~3 | inhibition (4T1 [27]): Active | Activity (4T1 [28]): 10.5% | Activity (4T1 [29]): 40% | inhibition (4T1 [31]): Active | Activity (ID8 [32]): Dose-Dependent Effect
